Laboratory results reported in patent publication US10221163B2 (priority 2015, dated 2019).
Where two headings read alike, the source gives them in different places.

Columns and labels:
[1] = target: IMP-1 (Serratia marcescens, UniProt P52699); assay: biochemical; assay type: biochemical; details: fluorescence assay, CCF2-FA substrate, 2 pM enzyme, 2 hours at 25° C.; read-out: IMP-1 IC50
How it was run: (§1)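 Inhibitor was mixed with the metallo-β-lactamase and CCF2-FA. After 2 hours at 25° C, fluorescence of the coumarin–fluorescein cephalosporin substrate was read. IC50 was calculated with a 4-parameter fit.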

[2] = target: NDM-1 (Klebsiella pneumoniae, UniProt C7C422); assay: biochemical; assay type: biochemical; details: fluorescence assay, CCF2-FA substrate, 1 pM enzyme, 2 hours at 25° C.; read-out: NDM-1 IC50
NDM-1, sequence (C7C422 whole entry, looked up, species assumed): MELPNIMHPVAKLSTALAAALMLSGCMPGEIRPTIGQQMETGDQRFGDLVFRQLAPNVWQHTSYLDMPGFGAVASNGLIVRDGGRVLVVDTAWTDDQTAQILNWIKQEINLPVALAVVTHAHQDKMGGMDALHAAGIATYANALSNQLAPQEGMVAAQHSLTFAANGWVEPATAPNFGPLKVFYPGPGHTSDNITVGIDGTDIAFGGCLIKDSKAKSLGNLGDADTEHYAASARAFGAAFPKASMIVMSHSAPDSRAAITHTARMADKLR
How it was run: as §1

[3] = target: VIM-1 (Pseudomonas aeruginosa (strain ATCC 15692 / DSM 22644 / CIP 104116 / JCM 14847 / LMG 12228 / 1C / PRS 101 / PAO1), UniProt A0A0F7KYQ8); assay: biochemical; details: CCF2-FA substrate, 30 pM enzyme, 2 hours at 25° C.
How it was run: as §1

[4] = test system: Escherichia coli expressing NDM-1 (CLB30005, CLB30016); assay type: cell-based; details: with imipenem 1 μg/ml; for Escherichia coli expressing NDM-1 (CLB30016) MITC95: 95% inhibition of bacterial growth; for Escherichia coli MITC95: NDM-1 strain, 95% inhibition of growth
How it was run: (§2)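 Clinical strains grown overnight on blood agar at 35°C, colonies suspended in saline, diluted 1:100 into 1.1×CAMHB. Test compound titrated with imipenem at 1 μg/ml; incubated 22–24 h at 35°C, growth read by absorbance.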

[5] = test system: Klebsiella pneumoniae expressing VIM-1 (IHMA599644); assay type: cell-based; details: for Klebsiella pneumoniae expressing VIM-1 (IHMA599644) MITC95: with imipenem 1 μg/ml, 95% inhibition of bacterial growth; for Klebsiella pneumoniae MITC95: VIM-1 strain IHMA599644, with imipenem 1 μg/ml, 95% inhibition of growth
How it was run: as §2

[6] = test system: Serratia marcescens expressing IMP-1 (CL5741); assay type: cell-based; details: for Serratia marcescens expressing IMP-1 (CL5741) MITC95: with imipenem 1 μg/ml, 95% inhibition of bacterial growth; for Serratia marcescens MITC95: IMP-1 strain CL5741, with imipenem 1 μg/ml, 95% inhibition of growth
How it was run: as §2

[7] = test system: Pseudomonas aeruginosa efflux+ (MB9798), IMP-1; assay type: cell-based; details: concentration restoring susceptibility to imipenem at 2 μg/mL in the presence of a class A, C, D serine β-lactamase inhibitor closely related to relebactam
How it was run: (§3)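 PAO1 pair, broth microdilution; fixed β-lactam (imipenem/ceftazidime) at ~CLSI breakpoint + fixed class A/C BLI for AmpC; serial MBLi titration; endpoint = MBLi conc. restoring susceptibility; MB9798:MB9799 ratio = efflux liability.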

[8] = test system: Pseudomonas aeruginosa efflux− (MB9799), IMP-1; assay type: cell-based; details: concentration restoring susceptibility to imipenem at 2 μg/mL in the presence of a class A, C, D serine β-lactamase inhibitor closely related to relebactam
How it was run: as §3

[9] = test system: Pseudomonas aeruginosa MB9798 vs MB9799; details: ratio MITC95 PA_9798/MITC95 PA_9799
How it was run: as §3

[10] = fluorescence assay, read-out: VIM-1 IC50

IMP-1, sequence (P52699 whole entry, looked up, species assumed): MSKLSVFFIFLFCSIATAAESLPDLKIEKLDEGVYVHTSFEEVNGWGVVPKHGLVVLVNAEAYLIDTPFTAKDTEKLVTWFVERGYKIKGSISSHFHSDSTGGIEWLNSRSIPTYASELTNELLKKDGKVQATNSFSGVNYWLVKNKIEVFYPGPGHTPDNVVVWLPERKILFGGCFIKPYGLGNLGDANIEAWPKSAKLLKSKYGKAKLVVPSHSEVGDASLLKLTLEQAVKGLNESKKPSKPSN

Structure (SMILES)	IC50 [1]	IC50 [2]	IC50 ([3]; VIM-1 IC50, fluorescence assay)	Escherichia coli expressing NDM-1 (CLB30016) MITC95 [4]	Klebsiella pneumoniae expressing VIM-1 (IHMA599644) MITC95 [5]	Serratia marcescens expressing IMP-1 (CL5741) MITC95 [6]	P. aeruginosa expressing IMP-1, efflux + (MB9798) MITC95 [7]	P. aeruginosa expressing IMP-1, efflux − (MB9799) MITC95 [8]	Efflux ratio [9]	IC50 [3, 10]	Escherichia coli MITC95 [4]	Klebsiella pneumoniae MITC95 [5]	Serratia marcescens MITC95 [6]
NCCNS(=O)(=O)c1ccc(-c2cccc3[nH]c(N)nc23)c(-c2nn[nH]n2)c1S(N)(=O)=O [Example 12, 4-(2-amino-1H-benzo[d]imidazol-4-yl)-N^1-(2-aminoethyl)-3-(2H-tetrazol-5-yl)benzene-1,2-disulfonamide]	316 pM	42.9 pM	102 pM	0.25 µM	0.5703 µM	0.6302 µM	0.375 µM	0.5 µM	0.75				
Nc1ccc(-c2ccc(S(=O)(=O)N[C@@H]3CCNC3)c(S(N)(=O)=O)c2-c2nn[nH]n2)cn1 [Example 194, (R)-4-(6-aminopyridin-3-yl)-N^1-(pyrrolidin-3-yl)-3-(2H-tetrazol-5-yl)benzene-1,2-disulfonamide]	242 pM	105 pM		0.3203 µM	2.229 µM	0.5573 µM	0.6875 µM	0.8542 µM	0.80	124 pM			
Nc1nc2c(-c3ccc(S(=O)(=O)NC4CCc5nccn5C4)c(S(N)(=O)=O)c3-c3nnn[nH]3)cccc2s1 (stereo not drawn) [Example 35, 4-(2-amino-1,3-benzothiazol-4-yl)-N1-(5,6,7,8-tetrahydroimidazo[1,2-a]pyridin-6-yl)-3-(1H-tetrazol-5-yl)benzene-1,2-disulfonamide]	349 pM	50.9 pM		12.5 µM	12.5 µM	3.125 µM	6.25 µM	3.125 µM	2.00	256 pM			
NCCNS(=O)(=O)c1ccc(-c2cccc(NC[C@@H](N)CO)c2)c(-c2nn[nH]n2)c1S(N)(=O)=O [Example 349, (R)-3′-((2-amino-3-hydroxypropyl)amino)-N4-(2-aminoethyl)-2-(2H-tetrazol-5-yl)-[1,1′-biphenyl]-3,4-disulfonamide]	5650 pM	1620 pM					1.563 µM	0.7813 µM	2.00	433 pM	1.563 µM	1.563 µM	1.563 µM
NCCNS(=O)(=O)c1ccc(-c2cccc(C(=O)NC[C@H](O)CN)c2)c(-c2nn[nH]n2)c1S(N)(=O)=O [Example 346]	3650 pM	1490 pM	467 pM				1.563 µM	0.7813 µM	2.00		1.563 µM	1.563 µM	1.563 µM
NCCCCNS(=O)(=O)c1ccc(-c2cccc3[nH]c(N)nc23)c(-c2nn[nH]n2)c1S(N)(=O)=O [Example 258, 4-(2-amino-1H-benzo[d]imidazol-7-yl)-N1-(4-aminobutyl)-3-(2H-tetrazol-5-yl)benzene-1,2-disulfonamide]	691 pM	53.5 pM					0.7813 µM	0.7813 µM	1.00	156 pM	0.1953 µM	1.563 µM	0.7813 µM
NC(=O)[C@H](N)CNS(=O)(=O)c1ccc(-c2cccc3[nH]c(N)nc23)c(-c2nn[nH]n2)c1S(N)(=O)=O [Example 188, (2R)-2-amino-3-(4-(2-amino-1H-benzo[d]imidazol-4-yl)-2-sulfamoyl-3-(2H-tetrazol-5-yl)phenylsulfonamido)propanamide]	613 pM	75.6 pM		1.563 µM	3.125 µM	1.563 µM	0.7813 µM	1.563 µM	0.50	213 pM			
Nc1nc2c(-c3ccc(S(=O)(=O)N[C@H]4CO[C@H]5[C@@H]4OC[C@H]5N)c(S(N)(=O)=O)c3-c3nnn[nH]3)cccc2s1.O=C(O)C(F)(F)F [Example 103, (3R,3aR,6S,6aR)-6-(4-(2-aminobenzo[d]thiazol-4-yl)-2-sulfamoyl-3-(1H-tetrazol-5-yl)phenylsulfonamido)hexahydrofuro[3,2-b]furan-3-aminium 2,2,2-trifluoroacetate]	226 pM	29.3 pM	196 pM	3.125 µM	3.125 µM	3.125 µM	3.125 µM	1.563 µM	2.00				
NCCCNS(=O)(=O)c1ccc(-c2cccc3sc(N)nc23)c(-c2nnn[nH]2)c1S(N)(=O)=O.O=C(O)C(F)(F)F [Example 90, 3-(4-(2-aminobenzo[d]thiazol-4-yl)-2-sulfamoyl-3-(1H-tetrazol-5-yl)phenylsulfonamido)propan-1-aminium 2,2,2-trifluoroacetate]	411 pM	79.5 pM		3.125 µM	3.125 µM	1.563 µM	0.7813 µM	1.563 µM	0.50	270 pM			
NC[C@@H](O)CNS(=O)(=O)c1ccc(-c2cccc3[nH]cnc23)c(-c2nn[nH]n2)c1S(N)(=O)=O [Example 301, (R)-4-(1H-benzo[d]imidazol-4-yl)-N1-(3-amino-2-hydroxypropyl)-3-(2H-tetrazol-5-yl)-benzene-1,2-disulfonamide]	128 pM	16.4 pM					0.7813 µM	0.7813 µM	1.00	52.8 pM	1.563 µM	3.125 µM	0.3906 µM
Nc1ccc2cccc(-c3ccc(S(=O)(=O)N[C@@H]4CCNC4)c(S(N)(=O)=O)c3-c3nn[nH]n3)c2n1 [Example 286, (R)-4-(2-aminoquinolin-8-yl)-N1-(pyrrolidin-3-yl)-3-(2H-tetrazol-5-yl)benzene-1,2-disulfonamide]	122 pM	20.7 pM					0.9766 µM	0.7813 µM	1.25	87.7 pM	1.953 µM	1.172 µM	0.7813 µM
NCCNS(=O)(=O)c1ccc(-c2cccc(C(=O)NC[C@H](N)CO)c2N)c(-c2nn[nH]n2)c1S(N)(=O)=O [Example 333, (S)-2-amino-N-(2-amino-3-hydroxypropyl)-4′-(N-(2-aminoethyl)sulfamoyl)-3′-sulfamoyl-2′-(2H-tetrazol-5-yl)-[1,1′-biphenyl]-3-carboxamide]	3210 pM	1010 pM					1.563 µM	1.563 µM	1.00	472 pM	1.563 µM	3.125 µM	1.563 µM
